Data from PubChem BioAssay AID248 (DTP/NCI, 2004).
Several values for one entry are separate records, joined by “and”; a condition that tells them apart may be missing. Identical values can stand only once. Inconclusive results and toxic doses are left out. Rule as the data show it: active = T/C of 150% or more; inactive = T/C below 125%.

System: L1210 leukemia ip in BDF1 mice, survival T/C
Experiment: NCI In Vivo Anticancer Drug Screen. Data for tumor model L1210 Leukemia (intraperitoneal) in B6D2F1 (BDF1) mice
Conditions: endpoint: mean survival time, higher = longer survival
Procedure, shortened: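 Value reflects the ratio of survival in compound-treated mice to survival in vehicle-treated controls, with both groups carrying the same transplanted tumor.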

[1] = dose: 100.0 mg/kg/injection, schedule: Q01DX009 (ip), vehicle: Klucel (hydroxypropylcellulose) (HPC)
[2] = dose: 200.0 mg/kg/injection, schedule: Q01DX009 (ip), vehicle: Klucel (hydroxypropylcellulose) (HPC)
[3] = dose: 400.0 mg/kg/injection, schedule: Q01DX009 (ip), vehicle: Klucel (hydroxypropylcellulose) (HPC)
[4] = dose: 100.0 mg/kg/injection, schedule: Q01DX009 (ip), vehicle: saline with Tween-80
[5] = dose: 200.0 mg/kg/injection, schedule: Q01DX009 (ip), vehicle: saline with Tween-80
[6] = dose: 400.0 mg/kg/injection, schedule: Q01DX009 (ip), vehicle: saline with Tween-80
[7] = dose: 100.0 mg/kg/injection, schedule: Q04DX003 (ip), vehicle: Klucel (hydroxypropylcellulose) (HPC)
[8] = dose: 200.0 mg/kg/injection, schedule: Q04DX003 (ip), vehicle: Klucel (hydroxypropylcellulose) (HPC)
[9] = dose: 400.0 mg/kg/injection, schedule: Q04DX003 (ip), vehicle: Klucel (hydroxypropylcellulose) (HPC)
[10] = dose: 50.0 mg/kg/injection, schedule: Q01DX009 (ip), vehicle: saline with Tween-80
[11] = dose: 100.0 mg/kg/injection, schedule: Q04DX003 (ip), vehicle: saline with Tween-80
[12] = dose: 200.0 mg/kg/injection, schedule: Q04DX003 (ip), vehicle: saline with Tween-80
[13] = dose: 50.0 mg/kg/injection, schedule: Q01DX009 (ip), vehicle: saline
[14] = dose: 100.0 mg/kg/injection, schedule: Q01DX009 (ip), vehicle: saline
[15] = dose: 100.0 mg/kg/injection, schedule: Q04DX003 (ip), vehicle: saline
[16] = dose: 200.0 mg/kg/injection, schedule: Q01DX009 (ip), vehicle: saline
[17] = dose: 200.0 mg/kg/injection, schedule: Q04DX003 (ip), vehicle: saline
[18] = dose: 400.0 mg/kg/injection, schedule: Q04DX003 (ip), vehicle: saline with Tween-80

Measured: T/C

COc1ccc(C2=CC(c3ccc(OC)c(OC)c3)c3c(c4ccccc4oc3=O)O2)cc1OC (configuration not stated)
inactive: dose: 25.0 mg/kg/injection, schedule: Q01DX009 (ip), vehicle: water 93 % of control | dose: 50.0 mg/kg/injection, schedule: Q01DX009 (ip), vehicle: water 98 % of control | dose: 100.0 mg/kg/injection, schedule: Q01DX009 (ip), vehicle: water 93 % of control | dose: 200.0 mg/kg/injection, schedule: Q01DX009 (ip), vehicle: water 94 % of control | dose: 400.0 mg/kg/injection, schedule: Q01DX009 (ip), vehicle: water 92 % of control

O=[N+]([O-])c1cccc(Oc2ncccc2[N+](=O)[O-])c1
inactive: [1] 95 % of control | dose: 100.0 mg/kg/injection, schedule: Q04DX003 (ip), vehicle: other 105 % of control | [2] 102 % of control | dose: 200.0 mg/kg/injection, schedule: Q04DX003 (ip), vehicle: other 103 % of control | [3] 94 % of control | dose: 400.0 mg/kg/injection, schedule: Q04DX003 (ip), vehicle: other 100 % of control

Cc1ccc(S(=O)(=O)NC(C)(C)CN)cc1
inactive: dose: 75.0 mg/kg/injection, schedule: Q01DX001 (ip), vehicle: other 103 % of control | dose: 150.0 mg/kg/injection, schedule: Q01DX001 (ip), vehicle: other 101 % of control | dose: 300.0 mg/kg/injection, schedule: Q01DX001 (ip), vehicle: other 95 % of control

OC(c1ccccc1)C(c1ccccc1)N1CCCC1 (configuration not stated)
inactive: dose: 75.0 mg/kg/injection, schedule: Q01DX001 (ip), vehicle: saline 94 % of control | dose: 150.0 mg/kg/injection, schedule: Q01DX001 (ip), vehicle: saline 97 % of control | dose: 300.0 mg/kg/injection, schedule: Q01DX001 (ip), vehicle: saline 92 % of control

NC(N)=NS(=O)(=O)c1ccc(N)cc1
inactive: [4] 98 % of control | [5] 95 % of control | [6] 91 % of control

O=c1c2ccccc2nc(-c2ccccc2)n1O
inactive: [7] 103 % of control | [8] 106 % of control | [9] 91 % of control

Cc1cc(N=Nc2ccc(N(C)C)cc2)cc(C)[n+]1[O-]
inactive: [1] 104 % of control | [7] 100 % of control | [2] 98 % of control | [8] 95 % of control | [9] 88 % of control

CC(=O)C1C(=O)OC(C)=C(C(=O)O)C1=O (configuration not stated)
inactive: [10] 102 % of control | [4] 100 % of control | [11] 92 % of control | [12] 103 % of control

CCN(C)CCC(CNC(=O)CN(CC)CC)(c1cccc2ccccc12)C(C)C (configuration not stated)
inactive: [13] 94 % of control | [14] 91 % of control | [15] 103 % of control | [16] 101 % of control | [17] 103 % of control

Oc1ccc(N=Cc2ccccn2)cc1
inactive: dose: 100.0 mg/kg/injection, schedule: Q01DX001 (ip), vehicle: carboxymethylcellulose (CMC) 96 % of control | dose: 200.0 mg/kg/injection, schedule: Q01DX001 (ip), vehicle: carboxymethylcellulose (CMC) 105 % of control | dose: 400.0 mg/kg/injection, schedule: Q01DX001 (ip), vehicle: carboxymethylcellulose (CMC) 98 % of control

COc1ccc(S(=O)(=O)Nc2cccc(C(F)(F)F)c2)cc1
inactive: [1] 102 % of control | [2] 102 % of control | [3] 100 % of control

OCC1OC(n2cnc3ccccc32)C(O)C1O (configuration not stated)
inactive: dose: 100.0 mg/kg/injection, schedule: Q01DX001 (ip), vehicle: saline 100 % of control | dose: 200.0 mg/kg/injection, schedule: Q01DX001 (ip), vehicle: saline 100 % of control | dose: 400.0 mg/kg/injection, schedule: Q01DX001 (ip), vehicle: saline 95 % of control

O=C(/C=C/c1ccc2c(c1)OCO2)c1ccc2c(c1)OCO2
inactive: [1] 106 % of control | [7] 98 % of control | [2] 100 % of control | [8] 104 % of control | [3] 100 % of control | [9] 101 % of control

Cc1ccc(N2C(=O)CC(Sc3ccccc3N)C2=O)cc1Cl (configuration not stated)
inactive: [1] 88 % of control | [4] 88 % of control | [7] 93 % of control | [11] 86 % of control and 89 % of control | [5] 96 % of control | [8] 93 % of control | [12] 87 % of control and 91 % of control | [3] 90 % of control | [6] 95 % of control | [9] 94 % of control | [18] 86 % of control and 87 % of control

CCOC(=O)C(=O)Cc1sccc1[N+](=O)[O-]
inactive: [1] 93 % of control | [7] 94 % of control | [2] 94 % of control | [8] 92 % of control | [3] 100 % of control | [9] 100 % of control

CC(=O)N/N=C/c1ccc2c(c1)CCC2
inactive: [11] 97 % of control | [12] 103 % of control

CN=C(NCc1ccccc1)c1ccc(NC(=O)c2ccc(C(=O)Nc3ccc(C(=NC)NCc4ccccc4)cc3)c(Cl)c2)cc1
inactive: dose: 2.0 mg/kg/injection, schedule: Q01DX Z (ip), vehicle: carboxymethylcellulose (CMC) 92 % of control | dose: 4.0 mg/kg/injection, schedule: Q01DX Z (ip), vehicle: carboxymethylcellulose (CMC) 105 % of control | dose: 8.0 mg/kg/injection, schedule: Q01DX Z (ip), vehicle: carboxymethylcellulose (CMC) 105 % of control

CCOc1c(Cl)cc(Cl)cc1C(c1ccc(Cl)cc1S(=O)(=O)O)c1cc(Cl)cc(Cl)c1OCC
inactive: [11] 89 % of control

O=C1c2ccccc2-c2nc3cncnc3nc21 (tested in a mixture with another compound)
inactive: [13] 98 % of control | [14] 101 % of control | [15] 95 % of control | [16] 101 % of control | [17] 101 % of control

COc1ccc(C2=CCCCC2)cc1
inactive: [4] 97 % of control | [11] 105 % of control | [5] 91 % of control | [12] 110 % of control | [6] 94 % of control | [18] 103 % of control

COC1OC(CO)C(O)C(OC)C1OC (configuration not stated)
inactive: [15] 93 % of control | [17] 103 % of control | dose: 400.0 mg/kg/injection, schedule: Q04DX003 (ip), vehicle: saline 106 % of control

Cc1ccc(S(=O)(=O)Oc2ccccc2NC(=O)c2ccccc2)cc1
inactive: [10] 96 % of control | [4] 96 % of control

CN(C)C(=O)c1ccccc1O
inactive: [1] 100 % of control | [2] 90 % of control | [3] 90 % of control

O=C(O)C1Cc2ccccc21 (configuration not stated)
inactive: dose: 25.0 mg/kg/injection, schedule: Q04DX002 (ip), vehicle: Klucel (hydroxypropylcellulose) (HPC) 96 % of control | dose: 50.0 mg/kg/injection, schedule: Q04DX002 (ip), vehicle: Klucel (hydroxypropylcellulose) (HPC) 96 % of control | dose: 100.0 mg/kg/injection, schedule: Q04DX002 (ip), vehicle: Klucel (hydroxypropylcellulose) (HPC) 92 % of control

O=S(=O)(/N=c1/ccc(NS(=O)(=O)c2ccccc2)cn1O)c1ccccc1
inactive: dose: 50.0 mg/kg/injection, schedule: Q01DX001 (ip), vehicle: Klucel (hydroxypropylcellulose) (HPC) 96 % of control | dose: 100.0 mg/kg/injection, schedule: Q01DX001 (ip), vehicle: Klucel (hydroxypropylcellulose) (HPC) 102 % of control | dose: 200.0 mg/kg/injection, schedule: Q01DX001 (ip), vehicle: Klucel (hydroxypropylcellulose) (HPC) 98 % of control

Cc1nc(N)nc(N)c1Cc1ccc(N=[N+]=[N-])cc1
inactive: dose: 25.0 mg/kg/injection, schedule: Q04DX002 (ip), vehicle: saline with Tween-80 98 % of control | dose: 50.0 mg/kg/injection, schedule: Q04DX002 (ip), vehicle: saline with Tween-80 113 % of control

O=[N+]([O-])c1ccc(C(Br)Br)cc1
inactive: [7] 93 % of control | [8] 93 % of control

COc1cccc2ccccc12
inactive: [11] 96 % of control | [12] 94 % of control

O=C1/C(=C/c2ccc(O)c(O)c2)Cc2ccccc21
inactive: [7] 117 % of control | [8] 105 % of control | [9] 104 % of control

c1ccc2c(c1)C(=Nc1ccc3ccccc3c1)c1ccccc1-2
inactive: [11] 97 % of control | [12] 88 % of control | [18] 92 % of control

O=C(C1=Cc2ccccc2OC1)N1CCN(C(=O)C2=Cc3ccccc3OC2)CC1
inactive: [11] 100 % of control | [12] 97 % of control | [18] 95 % of control

O=C(O)CCN(Cc1ccccc1)Cc1ccccc1
inactive: [4] 101 % of control | [11] 108 % of control | [5] 98 % of control | [12] 88 % of control | [6] 98 % of control | [18] 104 % of control

O=C(O)c1c(F)c(F)c(Oc2c(F)c(F)c(F)c(F)c2F)c(F)c1F
inactive: [7] 95 % of control | [8] 93 % of control

S=c1cc(-c2ccco2)ss1
inactive: [4] 93 % of control | [11] 90 % of control | [5] 91 % of control | [12] 95 % of control | [6] 90 % of control | [18] 96 % of control

O=C(CC(O)(C(F)(F)F)C(F)(F)F)c1c2ccccc2cc2ccccc12
inactive: [4] 98 % of control | [5] 109 % of control | [6] 98 % of control
